“Also recorded” adds a separate entry of the source.
Tests used:
[1] = APRI and FIB-4 fibrosis scores, post-hoc analysis of Study 202; type: in vivo, human
Protocol: Change in score category from baseline (BL) to Weeks 24 and 48 was assessed in patients with non-missing data. Correlations between changes from BL in APRI and FIB-4 scores, and MCP-1 (CCR2 ligand) and sCD14 (inflammatory biomarker) levels were evaluated.

CCR2 = biological target: T1, CCR2 (Homo sapiens, UniProt P41597); assay: CCR2 receptor occupancy / internalization in PBMCs (monocytes) by flow cytometry; type: cell-based
T1 construct: endogenous in cells; host or cells: monocytes within PBMCs from 5 HIV+ and 5 HIV- subjects
T1 sequence (P41597 1-360 isoform P41597-2): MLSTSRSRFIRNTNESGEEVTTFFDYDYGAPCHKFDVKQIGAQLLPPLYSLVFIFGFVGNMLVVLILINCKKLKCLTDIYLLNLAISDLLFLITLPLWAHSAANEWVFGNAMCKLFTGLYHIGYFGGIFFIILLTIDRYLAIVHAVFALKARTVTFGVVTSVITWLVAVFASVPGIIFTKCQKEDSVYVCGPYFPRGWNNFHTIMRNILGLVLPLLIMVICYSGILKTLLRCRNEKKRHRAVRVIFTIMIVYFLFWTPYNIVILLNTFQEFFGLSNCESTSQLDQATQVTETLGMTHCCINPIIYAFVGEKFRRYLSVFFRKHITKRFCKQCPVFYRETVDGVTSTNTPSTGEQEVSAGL
Protocol: The capacity of each drug to inhibit CCR5 or CCR2 internalization was evaluated. Cell-surface expression of CCR5 and CCR2 was assessed by flow cytometry, and fluorescence values were converted into molecules of equivalent soluble fluorescence (MESF).

HIV = assay: Ex vivo intracellular HIV DNA (qPCR) in PBMCs of Study 202 subjects; conditions: Week 24
Protocol: Early (strong-stop) and late (full-length) reverse transcript levels were measured by qPCR. […] P24 and viral load levels were measured by ELISA and qRT-PCR after 4 hours.

CCR1 = biological target: T2, CCR1 (Homo sapiens, UniProt P32246); assay: Ligand binding to CCR1
T2 sequence (P32246 1-355): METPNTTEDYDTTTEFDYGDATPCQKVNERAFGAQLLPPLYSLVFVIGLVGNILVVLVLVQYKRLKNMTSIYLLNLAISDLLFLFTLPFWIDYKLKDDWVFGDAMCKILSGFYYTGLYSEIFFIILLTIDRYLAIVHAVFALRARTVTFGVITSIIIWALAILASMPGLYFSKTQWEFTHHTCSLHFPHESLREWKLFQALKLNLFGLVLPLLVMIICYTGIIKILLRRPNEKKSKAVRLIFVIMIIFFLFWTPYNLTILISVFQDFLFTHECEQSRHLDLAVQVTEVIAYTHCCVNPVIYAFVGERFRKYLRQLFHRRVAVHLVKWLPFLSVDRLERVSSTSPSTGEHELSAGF

CCR7 = biological target: T3, CCR7 (Homo sapiens, UniProt P32248); assay: Ligand binding to CCR7
T3 sequence (P32248 25-378): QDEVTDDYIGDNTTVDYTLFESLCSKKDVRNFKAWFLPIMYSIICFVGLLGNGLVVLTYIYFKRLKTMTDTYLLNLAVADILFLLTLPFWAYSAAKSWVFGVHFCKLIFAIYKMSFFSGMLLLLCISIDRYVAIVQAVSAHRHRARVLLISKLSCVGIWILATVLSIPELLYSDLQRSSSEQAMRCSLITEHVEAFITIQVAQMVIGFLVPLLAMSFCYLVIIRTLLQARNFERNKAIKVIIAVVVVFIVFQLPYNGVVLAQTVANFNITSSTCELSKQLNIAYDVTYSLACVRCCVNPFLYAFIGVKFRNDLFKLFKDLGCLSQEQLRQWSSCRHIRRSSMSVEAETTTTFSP

[2] = tested on: RANTES-induced Ca2+ mobilization; assay: RANTES-induced Ca2+ mobilization; type: cell-based
HIV-1 = assay: Study 201: pharmacokinetic/pharmacodynamic relationships (Emax model); type: in vivo, human
Source text: Drug response was characterized using the following maximum effect (Emax) model: […]

HIV-2 clinical isolates = assay: HIV-2 phenotypic susceptibility, ANRS PBMC method; type: cell-based; conditions: for EC50: Human immunodeficiency virus 2, PBMC
Protocol: All patients were infected with HIV-2 group A. Tropism was determined phenotypically using Ghost(3) cell lines expressing CD4 receptor and one HIV coreceptor, CCR5 or CXCR4. Both Ghost(3) cell lines carries a humanized green fluorescent protein (GFP) gene, under the control of a HIV-2 LTR. […] Ghost(3) cells were provided by the NIH AIDS Reagent program.
Briefly, cell-free HIV-2 positive supernatant was serially diluted (1, 10^−1, and 10^−2) and incubated with PBMC for viral titration. Viruses were tested at a 100 TCID50 titration. Cells were pre-incubated with cenicriviroc or maraviroc at an appropriate concentration 1 hour before viral infection. Six serial dilutions of the antiretroviral drug were tested in quadruplicate. On day 4, viral replication was assessed by a specific viral load assay (Generic HIV-2 viral load, Biocentric, France).

[3] = HIV-2 isolate 10-046, group A, R5
[4] = HIV-2 isolate 10-051, group A, R5
[5] = HIV-2 isolate 10-055, group A, X4
[6] = HIV-2 isolate 10-056, group A, R5
[7] = HIV-2 isolate 10-069, group A, Dual
[8] = HIV-2 isolate 10-074, group A, R5

## CCCCOCCOc1ccc(-c2ccc3c(c2)/C=C(/C(=O)Nc2ccc([S@@+]([O-])Cc4cncn4CCC)cc2)CCCN3CC(C)C)cc1 [CVC, (S)-8-[4-(2-Butoxyethoxy)phenyl]-1-isobutyl-N-(4-{[(1-propyl-1H-imidazol-5-yl)methyl]sulfinyl}phenyl)-1,2,3,4-tetrahydro-1-benzazocine-5-carboxamide]
[1]; Baseline
  patients in APRI category 0.5-1.5: 14%
  patients in APRI category <0.5: 84%
  patients in APRI category >1.5: 2%
  patients in FIB-4 category 1.45-3.25: 17%
  patients in FIB-4 category <1.45: 82%
  patients in FIB-4 category >3.25: 1%
[1]; Week 24
  APRI: Decreased 1 category from baseline: 14%
  FIB-4: Decreased 1 category from baseline: 13%
  patients in APRI category 0.5-1.5: 7%
  patients in APRI category <0.5: 93%
  patients in FIB-4 category 1.45-3.25: 7%
  patients in FIB-4 category <1.45: 93%
[1]; Week 48
  APRI: Decreased 1 category from baseline: 10%
  FIB-4: Decreased 1 category from baseline: 14%
  patients in APRI category 0.5-1.5: 8%
  patients in APRI category <0.5: 91%
  patients in APRI category >1.5: 1%
  patients in FIB-4 category 1.45-3.25: 5%
  patients in FIB-4 category <1.45: 94%
  patients in FIB-4 category >3.25: 1%
CCR2; CCR2, monocytes
  average concentration required to reach >80% receptor occupancy: 1.8 nM
CCR2; PBMCs
  prevention of MCP-1-induced CCR2 internalization (in words): at lower concentrations than BMS-22
CCR2; in the absence of MCP-1, monocytes
  CCR2 cell-surface expression (in words): induced CCR2 internalization and decreased cell-surface expression on monocytes; also recorded: reduced CCR2 expression on monocytes
CCR2; monocytes
  concentration at which saturation of monocyte CCR2 was reached: 6 nM
CCR2; monocytes, at 6 nM (saturation)
  receptor occupancy at 0.006 µM: ~98%
HIV; CVC 100 mg arm
  Strong-stop HIV DNA decline (marker of HIV entry): 51%
HIV; CVC 200 mg arm
  Strong-stop HIV DNA decline (marker of HIV entry): 37%
CCR1
  inhibition of ligand binding (in words): did not inhibit
CCR7
  inhibition of ligand binding (in words): did not inhibit
[2]
  RANTES-induced Ca2+ mobilization (in words): blocked
HIV-1; HIV-1 RNA, Study 201
  Emax in the PK/PD model: −1.43 log10 copies/mL
HIV-1; Human immunodeficiency virus 1, 25 mg dose, read-out: percent of the maximum inhibitory effect at average Css (Emax model)
  Emax at 25 mg: 54.9%
HIV-1; Human immunodeficiency virus 1, 50 mg dose, read-out: percent of the maximum inhibitory effect at average Css (Emax model)
  Emax at 50 mg: 79.8%
HIV-1; Human immunodeficiency virus 1, 75 mg dose, read-out: percent of the maximum inhibitory effect at average Css (Emax model)
  Emax at 75 mg: 85.9%
HIV-1; Human immunodeficiency virus 1, 150 mg dose, read-out: percent of the maximum inhibitory effect at average Css (Emax model)
  Emax at 150 mg: 95.9%
HIV-2 clinical isolates; [3]
  MPI (%): 94%
  EC50: 0.03 nM
HIV-2 clinical isolates; [4]
  MPI (%): 93%
  EC50: 0.45 nM
HIV-2 clinical isolates; [5]
  MPI (%): 4%
  EC50: > 1000 nM
HIV-2 clinical isolates; [6]
  MPI (%): 94%
  EC50: 0.33 nM
HIV-2 clinical isolates; [7]
  MPI (%): 33%
  EC50: > 1000 nM
HIV-2 clinical isolates; [8]
  MPI (%): 98%
  EC50: 0.98 nM

From patent publication US20170105969A1, “CENICRIVIROC FOR THE TREATMENT OF HIV-2 INFECTION” (Tobira Therapeutics, Inc., priority 2014, published 2017)
